Data on four compounds can be found in PMC10707942, “Polyaromatic Bis(indolyl)methane Derivatives with Antiproliferative and Antiparasitic Activity” (Molecules, 2023).

Assay [1] has as its system HT-29 cell line. More on the design: method as in PMID 30715794. The settings on record: cited from earlier work.
For assay [2], the system named is Leishmania donovani. More on the design: method as in PMID 18703668, PMID 17922678. The settings on record: cited from earlier work.
Assay [3] relates to MRC-5 cell line (human lung fibroblast). In words: Cytotoxicity in healthy cell line, alamarBlue assay. It is filed as cell-based. The settings on record: MRC5, 72 h, error reported as σ. Here is the method:
(§1) The biological activity of the bis(indolyl)methane derivatives 2a–c were evaluated on in vitro models of parasites (T. brucei and L. major), human cancer cells (HeLa and HT-29) and human healthy cells (MRC-5). The toxicity of the BIM derivatives was determined through alamarBlue assay (for T. brucei and MRC-5) or MTT assay (for L. major), and the results are expressed as the concentration of the compound that reduces cell viability by 50% calculated through dose-response curves to give half maximal inhibitory concentration (IC50) (see Figures S7–S11).
MRC-5 cell line (human lung fibroblast) was grown in monolayer at 37 °C, 5% CO2 in DMEM medium (1 g/L glucose) supplemented with 10% hiFBS, 100 U/mL penicillin, […] streptomycin and 2 mM L-glutamine.
(§2) Cytotoxicity was measured in MRC-5, HeLa and HT-29 cell lines using alamarBlue® assay (ThermoFisher Scientific). The stock solutions of the compounds were prepared in DMSO, and the final DMSO percentage in each well was adjusted to be less than 1%. A total of 5 × 10^3 cells per mL (MRC-5, HeLa or HT-29 cells) were seeded in 96-well plates (100 μL/well) with 24 h of incubation time before compound addition at 37 °C, 5% CO2. Then, the compounds were added at increasing concentrations (from 0 to 100 μM), and the plates were incubated for 72 h. A total of 20 μL of resazurin solution (110 ng/mL) was added to each well, and cells were incubated for 4 h. Then, cells were lysed with 50 μL/well of 3% SDS. The plate was incubated at 37 °C for an extra hour; then, the fluorescence intensity was measured with the Infinite F200 plate reader (TECAN Austria, GmbH), exciting at 550 nm and recording the emission at 590 nm. The results are expressed as the concentration of compound that reduces cell growth by 50% versus untreated control cells (IC50). Data are presented as the average of at least three independent measurements all conducted in triplicate.

The test system of assay [4] is L. major. Kind of assay: Leishmanicidal activity, MTT-based assay. It is filed as cell-based, Leishmania major. Particulars: for IC50: Leishmania major, promastigotes, 72 h, MTT, error reported as σ; for Selectivity Index (SI) L. major: SI = IC50 MRC-5/IC50 L. major. Here is the method:
as §1
L. major (MHOM/IL/80/Friedlin) promastigotes were cultured at 28 °C, 5% CO2 in modified RPMI-1640 medium (Invitrogen, Carlsbad, CA, USA) supplemented with 10% hiFBS [45]. Parasites were maintained in culture in their experimental growth phase (below 2 million parasites per mL for T. brucei and 10 million parasites per mL for L. major).
The leishmanicidal activity of the compounds was determined using MTT-based assay (Sigma-Aldrich, St. Louis, MO, USA). The stock solutions of the compounds were prepared in DMSO, and the final DMSO percentage in each well was adjusted to be less than 1%. A total of 4 × 10^6 parasites per mL were incubated at 28 °C in 96-well plates (50 μL/well) alone or in the presence of an increasing concentration of compounds DMSO for 72 h. A total of 10 μL of MTT (5 mg/mL) was added to each well, and parasites were incubated for 4 h at 28 °C. Finally, cells were lysed with 50 μL/well of 20% SDS. The plate was incubated at 37 °C for an extra hour; then, the absorbance was measured with the Infinite F200 plate reader (TECAN Austria, GmbH, Grödig, Austria) at a wavelength of 540 nm. The IC50 was calculated as described above. Data are presented as the average of at least three independent measurements all conducted in triplicate.
A general note: Tetrazolium dyes change colour on reduction, which living cells bring about.

In assay [5] the test system is T. brucei. In words: Trypanocidal activity, alamarBlue assay. Type of assay: cell-based, Trypanosoma brucei. The settings on record: for Selectivity Index (SI) T. brucei: SI = IC50 MRC-5/IC50 T. brucei; for IC50: Trypanosoma brucei, 72 h, alamarBlue, error reported as σ. Here is the method:
The trypanocidal activity of the compounds was assessed using the alamarBlue® assay (ThermoFisher Scientific, Waltham, MA, USA). […] Finally, cells were lysed with 50 μL per well of SDS 3%. The plate was incubated at 37 °C for an extra hour; then, the fluorescence intensity was measured with an Infinite F200 plate reader (Tecan Austria, GmbH, Grödig, Austria), exciting at 550 nm and recording the emission at 590 nm. The results are expressed as the concentration of the compound that reduces cell growth by 50% versus untreated control cells (IC50). Data are presented as the average of at least three independent measurements all conducted in triplicate.

Assay [6] has as its system HeLa (human cervical carcinoma). Kind of assay: Cytotoxicity in cancer cell line, alamarBlue assay. Particulars: for IC50: Homo sapiens, HeLa, 72 h, alamarBlue, error reported as σ; for Selectivity Index (SI) HeLa: SI = IC50 MRC-5/IC50 HeLa. It is filed as cell-based. How it is done:
(§3) HeLa (human cervical carcinoma) and HT-29 (human colorectal adenocarcinoma) cell lines were maintained at 37 °C, 5% CO2 in high glucose DMEM (4.5 g/L glucose) supplemented with 10% hiFBS, 100 U/mL penicillin, […] streptomycin, 2 mM L-glutamine and non-essential amino acids (1X). Cells were plated and passaged according to ATCC recommendations and were used for the experiments while in the exponential growth phase.
as §2
For orientation: The colour change of resazurin is a common sign of viable cells or microbes.

For assay [7], the system named is HT-29 (human colorectal adenocarcinoma). Kind of assay: Cytotoxicity in cancer cell line, alamarBlue assay. Type of assay: cell-based. Particulars: for IC50: Homo sapiens, HT-29, 72 h, alamarBlue, error reported as σ; for Selectivity Index (SI) HT-29: SI = IC50 MRC-5/IC50 HT-29. How it is done:
as §3, §2

One may read the IC50 as the concentration that gives 50% inhibition.

Regarding `c1ccc2c(Cc3c[nH]c4ccccc34)c[nH]c2c1` [Arundine, 3,3-diindolylmethane], the values for the concentration for half-maximal inhibition (IC50) in assay [1] and in assay [2] were more than 100 µM and 1.2 µM, respectively.

As to `c1ccc(N(c2ccccc2)c2ccc(C(c3c[nH]c4ccccc34)c3c[nH]c4ccccc34)cc2)cc1` [Compound 2a], in assay [3], the half-inhibitory concentration (IC50) was 33.7 ± 3.19 µM. For the same compound, in assay [4], inhibition was half-maximal at 3.3 ± 0.25 µM (IC50) and the “Selectivity Index (SI) L. major” value came out at 10.21. Further, in assay [5], the “Selectivity Index (SI) T. brucei” value is given as 10.50 and the IC50 came to 3.21 ± 0.04 µM. In assay [6], inhibition was half-maximal at 37.5 ± 1.86 µM (IC50) and the “Selectivity Index (SI) HeLa” value turned out to be 0.90. Also, in assay [7], half-maximal inhibition (IC50) was put at 3.93 ± 0.49 µM and the “Selectivity Index (SI) HT-29” value worked out at 8.57.

Regarding `CN(C)c1ccc(C(c2c[nH]c3ccccc23)c2c[nH]c3ccccc23)c2ccccc12` [Compound 2b], 94.9 ± 7.27 µM corresponded to half-maximal inhibition in assay [3] (IC50). For the same compound, in assay [4], the IC50 is more than 100 µM and the “Selectivity Index (SI) L. major” value is recorded as less than 0.95. Moreover, in assay [5], the “Selectivity Index (SI) T. brucei” value was 5.93 and half-maximal inhibition (IC50) required 16 ± 4.44 µM. In assay [6], the IC50 turned out to be 89.56 ± 0.15 µM and the “Selectivity Index (SI) HeLa” value is recorded as 1.06. For the same compound, in assay [7], the IC50 was 25.4 ± 5.23 µM and the “Selectivity Index (SI) HT-29” value was found to be 3.73.

For `Oc1cccc2ccc(C(c3c[nH]c4ccccc34)c3c[nH]c4ccccc34)nc12` [Compound 2c], the half-inhibitory concentration (IC50) was 3.25 ± 0.29 µM in assay [3]; 20.7 ± 1.71 µM in assay [4]; 14.66 ± 0.05 µM in assay [5]; 28.3 ± 5.01 µM in assay [6]; 71.4 ± 3.99 µM in assay [7]. The “Selectivity Index (SI) HeLa” value in assay [6] was 0.11. The “Selectivity Index (SI) HT-29” value in assay [7] is on record as 0.05.
